Laboratory results: article PMC8319579, “Aspergillomarasmine A inhibits metallo-β-lactamases by selectively sequestering Zn^2+” (The Journal of Biological Chemistry, 2021)

Legend:
New Delhi MBL-1 (NDM-1) [1] = target: T1, New Delhi MBL-1 (NDM-1) (Klebsiella pneumoniae, UniProt C7C422); assay: steady-state hydrolysis by purified NDM-1, absorbance at […] nm; type: biochemical
T1 construct: gene blaNDM-1; His6-SUMO tag removed

New Delhi MBL-1 (NDM-1) [2] = target: T1, New Delhi MBL-1 (NDM-1); assay: time-dependent covalent fluorescent labelling by SDS-PAGE; blocked by ZnSO4; type: binding

T1 sequence (C7C422 29-270 limits assumed): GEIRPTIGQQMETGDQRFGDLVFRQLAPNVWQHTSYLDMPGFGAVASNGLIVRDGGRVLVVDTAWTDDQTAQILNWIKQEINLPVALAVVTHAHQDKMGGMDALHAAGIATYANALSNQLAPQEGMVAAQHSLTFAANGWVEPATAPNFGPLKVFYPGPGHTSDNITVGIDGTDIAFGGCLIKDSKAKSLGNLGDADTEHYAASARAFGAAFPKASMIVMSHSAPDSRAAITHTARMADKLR

Compound	steady-state hydrolysis by purified NDM-1, absorbance at 485 nm (New Delhi MBL-1 (NDM-1) [1])	time-dependent covalent fluorescent labelling by SDS-PAGE; blocked by ZnSO4 (New Delhi MBL-1 (NDM-1) [2])
O=C(Cc1cccs1)N[C@@H]1C(=O)N2C(C(=O)O)=C(/C=C/c3ccc([N+](=O)[O-])cc3[N+](=O)[O-])CS[C@H]12 [nitrocefin]	we determined the steady-state kinetics of NDM-1–catalyzed hydrolysis of nitrocefin over fixed time intervals	–
CN(C)c1cccc2c(S(=O)(=O)NCCN3C(=O)C=CC3=O)cccc12 [DM, N-[2-(dansylamino)ethyl]maleimide]	–	NDM-1 showed time-dependent fluorescent labeling by DM in response to AMA (Fig. 4B).
